Experimental findings from PubChem BioAssay (NCI) are described below.

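Cultured in 96-well plates, cells were exposed to test compound for 48 hours across five concentrations. TGI: concentration producing complete growth inhibition.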

Test systems include HOP-62 NSCLC; SK-MEL-5 melanoma; HCT-15 colon; SN12C renal; HT29 colon; IGROV1 ovarian; SK-OV-3 ovarian; HL-60(TB) leukemia; HCT-116 colon; OVCAR-8 ovarian; NCI-H23 lung; TK-10 renal; SW-620 colon; HCC-2998 colon; SNB-75 CNS; M19-MEL melanoma; OVCAR-5 ovarian; OVCAR-3 ovarian; COLO 205 colon; UACC-62 melanoma.
Common to all, as to test: DTP human tumour cell line panel, 48 h

Regarding `COc1ccc(Nc2cnc3cc(N)ccc3n2)cc1OC`, the concentration for total growth inhibition (TGI) in the experiment with HOP-62 NSCLC, in the experiment on SK-MEL-5 melanoma, in the experiment on HCT-15 colon, with SN12C renal, in the experiment on HT29 colon and in the experiment with IGROV1 ovarian was greater than 100 µM each time. Besides, the TGI was greater than 100 µM in the experiment on SK-OV-3 ovarian; 62.1 µM with HL-60(TB) leukemia; greater than 100 µM in the experiment with HCT-116 colon; greater than 100 µM in the experiment on OVCAR-8 ovarian; greater than 100 µM in the experiment with NCI-H23 lung; greater than 100 µM in the experiment on TK-10 renal. For the same compound, the TGI in the experiment on SW-620 colon, with HCC-2998 colon, in the experiment on SNB-75 CNS, in the experiment with M19-MEL melanoma, in the experiment with OVCAR-5 ovarian and in the experiment on OVCAR-3 ovarian was greater than 100 µM in each case. Besides, the TGI with COLO 205 colon and in the experiment on UACC-62 melanoma was greater than 100 µM throughout.
With `CC(=O)Nc1ccc(C(=O)NN2C(=O)C(Cl)C2/C=C/c2ccccc2)cc1` (configuration not stated), the concentration for total growth inhibition (TGI) in the experiment with HOP-62 NSCLC, in the experiment with SK-MEL-5 melanoma, in the experiment on HT29 colon, in the experiment on IGROV1 ovarian, with SK-OV-3 ovarian and in the experiment with HL-60(TB) leukemia was greater than 100 µM in each case. The TGI in the experiment with HCT-116 colon, in the experiment with OVCAR-8 ovarian, in the experiment with NCI-H23 lung, in the experiment on TK-10 renal, with SW-620 colon and in the experiment on HCC-2998 colon was greater than 100 µM in each case. Moreover, the TGI with SNB-75 CNS, in the experiment on M19-MEL melanoma, in the experiment with OVCAR-5 ovarian, in the experiment with OVCAR-3 ovarian, in the experiment with COLO 205 colon and in the experiment with UACC-62 melanoma was greater than 100 µM each time.
In the case of `COC(=O)C(Cc1cc(OC)c(OC)c(OC)c1)(NC(=O)c1ccccc1)P(=O)(OC)OC` (configuration not stated), the concentration for total growth inhibition (TGI) in the experiment on HOP-62 NSCLC, in the experiment with SK-MEL-5 melanoma, in the experiment with HCT-15 colon, with SN12C renal, in the experiment with HT29 colon and with IGROV1 ovarian was greater than 100 µM each time. In addition, the TGI in the experiment on SK-OV-3 ovarian, in the experiment on HL-60(TB) leukemia, in the experiment on HCT-116 colon, in the experiment on OVCAR-8 ovarian, in the experiment with NCI-H23 lung and in the experiment on TK-10 renal was greater than 100 µM throughout. Besides, the TGI with SW-620 colon, with HCC-2998 colon, with SNB-75 CNS, with M19-MEL melanoma, with OVCAR-5 ovarian and in the experiment with COLO 205 colon was greater than 100 µM in each case. Also, in the experiment with UACC-62 melanoma, the TGI was greater than 100 µM.
On to `Nc1[nH]nc2c1Cc1c(n(Cc3ccc(Cl)cc3)c3ccccc13)C(=O)N2`, for which the TGI in the experiment with HOP-62 NSCLC worked out at 31.1 µM; with SK-MEL-5 melanoma, 17.6 µM; in the experiment with HCT-15 colon, 16.8 µM; with SN12C renal it was 28 µM; with HT29 colon, 34.9 µM; in the experiment with IGROV1 ovarian it was 31.8 µM. In addition, the TGI in the experiment on SK-OV-3 ovarian came out at 34.6 µM; in the experiment on HL-60(TB) leukemia, 10.2 µM; in the experiment with HCT-116 colon it was 21.8 µM; with OVCAR-8 ovarian, 39.2 µM; in the experiment with NCI-H23 lung it was 23.9 µM; in the experiment with TK-10 renal, 35 µM. Besides, the concentration for total growth inhibition (TGI) in the experiment on SW-620 colon is greater than 100 µM; in the experiment with HCC-2998 colon, 24.6 µM; in the experiment with SNB-75 CNS, 30.6 µM; in the experiment on OVCAR-5 ovarian, 27.3 µM; with OVCAR-3 ovarian, 30.5 µM; with COLO 205 colon, 23.7 µM. Also, the TGI in the experiment on UACC-62 melanoma was greater than 100 µM.
As for `c1ccc2c(CCNC3=NCCO3)cccc2c1`, the TGI in the experiment with HOP-62 NSCLC, in the experiment on SK-MEL-5 melanoma, with HCT-15 colon, in the experiment on HT29 colon, with IGROV1 ovarian and in the experiment on SK-OV-3 ovarian was greater than 10 µM each time. The concentration for total growth inhibition (TGI) with HL-60(TB) leukemia, with HCT-116 colon, with OVCAR-8 ovarian, with NCI-H23 lung, in the experiment with TK-10 renal and in the experiment with SW-620 colon was greater than 10 µM in each case. Moreover, the TGI with HCC-2998 colon, in the experiment with SNB-75 CNS, with OVCAR-5 ovarian, in the experiment with OVCAR-3 ovarian, in the experiment on COLO 205 colon and in the experiment on UACC-62 melanoma was greater than 10 µM in each case.
Consider `O=c1n(CC2CO2)c2ccccc2n1CC1CS1` (configuration not stated), for which the TGI is greater than 100 µM in the experiment on HOP-62 NSCLC; greater than 100 µM with HCT-15 colon; greater than 100 µM in the experiment with SN12C renal; greater than 100 µM in the experiment with IGROV1 ovarian; 87.7 µM in the experiment with HL-60(TB) leukemia; greater than 100 µM in the experiment with HCT-116 colon. Besides, the TGI in the experiment on OVCAR-8 ovarian, in the experiment with TK-10 renal, with SW-620 colon, in the experiment with HCC-2998 colon, in the experiment with M19-MEL melanoma and with OVCAR-5 ovarian was greater than 100 µM throughout. For the same compound, the TGI with OVCAR-3 ovarian, in the experiment on COLO 205 colon and in the experiment on UACC-62 melanoma was greater than 100 µM in each case.
Turning to `CSc1nc(NC2OC(CO)C(O)C(O)C2O)c(N)c(=O)[nH]1` (configuration not stated), the TGI in the experiment on HOP-62 NSCLC, in the experiment with SK-MEL-5 melanoma, with HCT-15 colon, in the experiment with SN12C renal, with HT29 colon and in the experiment with IGROV1 ovarian was greater than 100 µM throughout. In addition, the TGI with SK-OV-3 ovarian, with HL-60(TB) leukemia, with HCT-116 colon, in the experiment with OVCAR-8 ovarian, in the experiment on NCI-H23 lung and in the experiment on SW-620 colon was greater than 100 µM throughout. Further, the TGI with HCC-2998 colon, in the experiment on SNB-75 CNS, in the experiment on M19-MEL melanoma, with OVCAR-5 ovarian, with OVCAR-3 ovarian and in the experiment on COLO 205 colon was greater than 100 µM each time. In the experiment on UACC-62 melanoma, the TGI is greater than 100 µM.
`O=[N+]([O-])c1cnccc1-n1nnc2ccccc21`: the TGI with HOP-62 NSCLC was 59.3 µM; with SK-MEL-5 melanoma it was 33.3 µM; with HCT-15 colon, 66.1 µM; with SN12C renal, 37.7 µM; with HT29 colon it was greater than 100 µM; in the experiment with IGROV1 ovarian, 47.6 µM. Further, the TGI with SK-OV-3 ovarian is 56.6 µM; in the experiment on HL-60(TB) leukemia it was greater than 54.7 µM; with HCT-116 colon it was greater than 100 µM; with OVCAR-8 ovarian, 50.8 µM; in the experiment on NCI-H23 lung, greater than 62 µM; in the experiment on SW-620 colon, 52 µM. Moreover, the TGI in the experiment on HCC-2998 colon is 51.6 µM; in the experiment on SNB-75 CNS it was 54.1 µM; with M19-MEL melanoma, 49.6 µM; in the experiment on OVCAR-5 ovarian, 73.4 µM; with OVCAR-3 ovarian it was greater than 31.6 µM; with COLO 205 colon, 72.8 µM. Further, the TGI in the experiment with UACC-62 melanoma turned out to be 33.4 µM.

Broadly, the TGI is the concentration at which net growth stops. Low values mean greater sensitivity of the cells, high ones lower sensitivity of the cells.
